Test results from article PMC11579512, “Deoxybouvardin-glucoside induces apoptosis in non-small cell lung cancer cells by targeting EGFR/MET and AKT signaling pathway” (EXCLI Journal, 2024).

Columns and labels:
Type in all cases: cell-based, human
[1] = system: p-MET; test: Immunoblot p-MET with NAC pretreatment, HCC827 and HCC827GR cells; details: for p-MET protein Ratio: control = 1.00
Experimental: (§1) HaCaT cells were grown in DMEM, whereas HCC827 and HCC827GR cells were grown in RPMI 1640. All culture media were supplemented with FBS (10 %) and P/S (1 %), and the cells were grown at 37 °C in 5 % CO2.
(§2) Cells were lysed in RIPA buffer, and protein concentration was determined using a Bio-Rad DC Protein Assay kit (Bio-Rad, Hercules, CA, USA). Protein samples from the cell lysates were resolved by sodium dodecyl sulfate-polyacrylamide gel electrophoresis and then transferred onto polyvinylidene fluoride membranes. The membranes were blocked with 3 % or 5 % skim milk and then incubated at 4 °C overnight with the indicated primary antibodies, followed by the corresponding horseradish peroxidase-conjugated secondary antibodies at RT for 2 h. Protein bands were visualized using western blotting luminol reagent solution and ImageQuant LAS 500 (GE Healthcare, Uppsala, Sweden). The density of the bands was quantified using ImageJ software (NIH, Bethesda, MD, USA).

[2] = system: HCC827GR cells; test: Intracellular ROS (Muse Oxidative Stress Kit), HCC827GR; details: 48 h, control 16.69 %
Experimental: as §1
The levels of intracellular ROS were measured using a Muse™ Oxidative Stress Kit (MCH100111, Merck Millipore) in accordance with the manufacturer's instructions. The cells were incubated with a Muse™ Oxidative Stress Reagent working solution in the dark at 37 °C for 30 min. Intracellular ROS generation was measured using a Muse™ Cell Analyzer.

[3] = system: CDK2; test: Immunoblot CDK2 in HCC827 and HCC827GR cells; details: for CDK2 protein ratio: relative to DBG 0 nM = 1.00
Experimental: as §1, §2

[4] = system: Bcl-2; test: Immunoblot Bcl-2 in HCC827 and HCC827GR cells; details: for BCl-2 protein Ratio: DBG 0 nM = 1.00
Experimental: as §1, §2

[5] = system: HCC827 cells; test: Annexin V/7-AAD apoptosis, HCC827; design: Early apoptosis / Total apopt / Dead / Live: unit not given here; details: for apoptotic cells (annexin V+): 48 h, background 4.78 %; for Dead / Early apoptosis / Late apoptosis/Dead / Total apopt / Live: HCC827
Experimental: as §1
Apoptosis was measured using a Muse™ Annexin V & Dead Cell Kit (MCH100105, Merck Millipore). The fluorescent signal was analyzed with a Muse™ Cell Analyzer.

[6] = system: p27; test: Immunoblot p27 in HCC827 and HCC827GR cells
Experimental: as §1, §2

[7] = system: CDK4; test: Immunoblot CDK4 in HCC827 and HCC827GR cells; details: for CDK4 protein ratio: relative to DBG 0 nM = 1.00
Experimental: as §1, §2

COc1ccc(C[C@H]2C(=O)N[C@@H](C)C(=O)N(C)[C@H]3Cc4ccc(cc4)Oc4cc(ccc4O[C@@H]4O[C@H](CO)[C@@H](O)[C@H](O)[C@H]4O)C[C@@H](C(=O)N[C@H](C)C(=O)N[C@@H](C)C(=O)N2C)N(C)C3=O)cc1 [DBG, deoxybouvardin glucoside]
p-MET protein/actin ([1]; HCC827, DBG 12 nM, control 1.17): 0.27
p-MET protein Ratio ([1]; HCC827, DBG 12 nM): 0.23
p-MET protein/actin ([1]; HCC827, NAC 4 mM + DBG 12 nM, control 1.17): 0.40
p-MET protein Ratio ([1]; HCC827, NAC 4 mM + DBG 12 nM): 0.34
p-MET protein/actin ([1]; HCC827GR, DBG 12 nM, control 1.14): 0.44
p-MET protein Ratio ([1]; HCC827GR, DBG 12 nM): 0.39
p-MET protein/actin ([1]; HCC827GR, NAC 4 mM + DBG 12 nM, control 1.14): 0.21
p-MET protein Ratio ([1]; HCC827GR, NAC 4 mM + DBG 12 nM): 0.18
DBG-decreased phosphorylation of MET with NAC ([1]; NAC 4 mM pretreatment, DBG 48 h): did not change
ROS level ([2]; DBG 3 nM): 36.89%
ROS level ([2]; DBG 6 nM): 39.97%
ROS level ([2]; DBG 12 nM): 47.92%
level of CDKs (CDK2) ([3]; DBG 3, 6, 12 nM, 48 h): significantly decreased
CDK2 protein/actin ([3]; HCC827, DBG 3 nM, DBG 0 nM 0.56): 0.43
CDK2 protein ratio ([3]; HCC827, DBG 3 nM): 0.77
CDK2 protein/actin ([3]; HCC827, DBG 6 nM, DBG 0 nM 0.56): 0.20
CDK2 protein ratio ([3]; HCC827, DBG 6 nM): 0.36
CDK2 protein/actin ([3]; HCC827, DBG 12 nM, DBG 0 nM 0.56): 0.17
CDK2 protein ratio ([3]; HCC827, DBG 12 nM): 0.30
CDK2 protein/actin ([3]; HCC827GR, DBG 3 nM, DBG 0 nM 0.58): 0.44
CDK2 protein ratio ([3]; HCC827GR, DBG 3 nM): 0.76
CDK2 protein/actin ([3]; HCC827GR, DBG 6 nM, DBG 0 nM 0.58): 0.36
CDK2 protein ratio ([3]; HCC827GR, DBG 6 nM): 0.62
CDK2 protein/actin ([3]; HCC827GR, DBG 12 nM, DBG 0 nM 0.58): 0.25
CDK2 protein ratio ([3]; HCC827GR, DBG 12 nM): 0.44
BCl-2 protein/actin ([4]; HCC827, DBG 3 nM, DBG 0 nM 0.55): 0.30
BCl-2 protein Ratio ([4]; HCC827, DBG 3 nM): 0.55
BCl-2 protein/actin ([4]; HCC827, DBG 6 nM, DBG 0 nM 0.55): 0.21
BCl-2 protein Ratio ([4]; HCC827, DBG 6 nM): 0.39
BCl-2 protein/actin ([4]; HCC827, DBG 12 nM, DBG 0 nM 0.55): 0.19
BCl-2 protein Ratio ([4]; HCC827, DBG 12 nM): 0.36
BCl-2 protein/actin ([4]; HCC827GR, DBG 3 nM, DBG 0 nM 0.66): 0.59
BCl-2 protein Ratio ([4]; HCC827GR, DBG 3 nM): 0.89
BCl-2 protein/actin ([4]; HCC827GR, DBG 6 nM, DBG 0 nM 0.66): 0.47
BCl-2 protein Ratio ([4]; HCC827GR, DBG 6 nM): 0.70
BCl-2 protein/actin ([4]; HCC827GR, DBG 12 nM, DBG 0 nM 0.66): 0.19
BCl-2 protein Ratio ([4]; HCC827GR, DBG 12 nM): 0.29
level of Bcl-2 ([4]; NSCLC cells, DBG): downregulated
apoptotic cells (annexin V+) ([5]; DBG 3 nM): 9.60%
apoptotic cells (annexin V+) ([5]; DBG 6 nM): 15.30%
apoptotic cells (annexin V+) ([5]; DBG 12 nM): 44.90%
Dead ([5]; DBG 3 nM, mean of 3 samples, untreated 1.21): 1.72
Early apoptosis ([5]; DBG 3 nM, mean of 3 samples, untreated 1.30): 3.33
Late apoptosis/Dead ([5]; DBG 3 nM, mean of 3 samples, untreated 3.48): 6.27
Total apopt ([5]; DBG 3 nM, mean of 3 samples, untreated 4.78): 9.60
Live ([5]; DBG 3 nM, mean of 3 samples, untreated 94.01): 88.68
Dead ([5]; DBG 3 nM, replicate 1): 1.90
Early apoptosis ([5]; DBG 3 nM, replicate 1): 3.35
Late apoptosis/Dead ([5]; DBG 3 nM, replicate 1): 5.90
Live ([5]; DBG 3 nM, replicate 1): 88.85
Total apopt ([5]; DBG 3 nM, replicate 1): 9.25
Dead ([5]; DBG 3 nM, replicate 2): 1.75
Early apoptosis ([5]; DBG 3 nM, replicate 2): 3.40
Late apoptosis/Dead ([5]; DBG 3 nM, replicate 2): 5.90
Live ([5]; DBG 3 nM, replicate 2): 88.95
Total apopt ([5]; DBG 3 nM, replicate 2): 9.30
Dead ([5]; DBG 3 nM, replicate 3): 1.50
Early apoptosis ([5]; DBG 3 nM, replicate 3): 3.25
Late apoptosis/Dead ([5]; DBG 3 nM, replicate 3): 7.00
Live ([5]; DBG 3 nM, replicate 3): 88.25
Total apopt ([5]; DBG 3 nM, replicate 3): 10.25
Dead ([5]; DBG 6 nM, mean of 3 samples, untreated 1.21): 1.75
Early apoptosis ([5]; DBG 6 nM, mean of 3 samples, untreated 1.30): 6.37
Late apoptosis/Dead ([5]; DBG 6 nM, mean of 3 samples, untreated 3.48): 8.93
Total apopt ([5]; DBG 6 nM, mean of 3 samples, untreated 4.78): 15.30
Live ([5]; DBG 6 nM, mean of 3 samples, untreated 94.01): 82.95
Dead ([5]; DBG 6 nM, replicate 1): 1.70
Early apoptosis ([5]; DBG 6 nM, replicate 1): 6.40
Late apoptosis/Dead ([5]; DBG 6 nM, replicate 1): 9.25
Live ([5]; DBG 6 nM, replicate 1): 82.65
Total apopt ([5]; DBG 6 nM, replicate 1): 15.65
Dead ([5]; DBG 6 nM, replicate 2): 1.90
Early apoptosis ([5]; DBG 6 nM, replicate 2): 6.75
Late apoptosis/Dead ([5]; DBG 6 nM, replicate 2): 8.15
Live ([5]; DBG 6 nM, replicate 2): 83.20
Total apopt ([5]; DBG 6 nM, replicate 2): 14.90
Dead ([5]; DBG 6 nM, replicate 3): 1.65
Early apoptosis ([5]; DBG 6 nM, replicate 3): 5.95
Late apoptosis/Dead ([5]; DBG 6 nM, replicate 3): 9.40
Live ([5]; DBG 6 nM, replicate 3): 83.00
Total apopt ([5]; DBG 6 nM, replicate 3): 15.35
Dead ([5]; DBG 12 nM, mean of 3 samples, untreated 1.21): 4.72
Early apoptosis ([5]; DBG 12 nM, mean of 3 samples, untreated 1.30): 19.42
Late apoptosis/Dead ([5]; DBG 12 nM, mean of 3 samples, untreated 3.48): 25.48
Total apopt ([5]; DBG 12 nM, mean of 3 samples, untreated 4.78): 44.90
Live ([5]; DBG 12 nM, mean of 3 samples, untreated 94.01): 50.38
Dead ([5]; DBG 12 nM, replicate 1): 4.65
Early apoptosis ([5]; DBG 12 nM, replicate 1): 19.00
Late apoptosis/Dead ([5]; DBG 12 nM, replicate 1): 25.05
Live ([5]; DBG 12 nM, replicate 1): 51.30
Total apopt ([5]; DBG 12 nM, replicate 1): 44.05
Dead ([5]; DBG 12 nM, replicate 2): 4.15
Early apoptosis ([5]; DBG 12 nM, replicate 2): 19.25
Late apoptosis/Dead ([5]; DBG 12 nM, replicate 2): 25.30
Live ([5]; DBG 12 nM, replicate 2): 51.30
Total apopt ([5]; DBG 12 nM, replicate 2): 44.55
Dead ([5]; DBG 12 nM, replicate 3): 5.35
Early apoptosis ([5]; DBG 12 nM, replicate 3): 20.00
Late apoptosis/Dead ([5]; DBG 12 nM, replicate 3): 26.10
Live ([5]; DBG 12 nM, replicate 3): 48.55
Total apopt ([5]; DBG 12 nM, replicate 3): 46.10
level of p27 ([6]; DBG, 48 h): increasing p27
p27 protein/actin ([6]; HCC827, DBG 3 nM, DBG 0 nM 0.14): 0.14
p27 protein ratio ([6]; HCC827, DBG 3 nM, relative to DBG 12 nM = 1.00, DBG 0 nM 0.34): 0.33
p27 protein/actin ([6]; HCC827, DBG 6 nM, DBG 0 nM 0.14): 0.40
p27 protein ratio ([6]; HCC827, DBG 6 nM, relative to DBG 12 nM = 1.00, DBG 0 nM 0.34): 0.96
p27 protein ratio ([6]; HCC827, DBG 12 nM (set to 1.00), DBG 0 nM 0.34): 1.00
p27 protein/actin ([6]; HCC827, DBG 12 nM, DBG 0 nM 0.14): 0.42
p27 protein/actin ([6]; HCC827GR, DBG 3 nM, DBG 0 nM 0.06): 0.09
p27 protein ratio ([6]; HCC827GR, DBG 3 nM, relative to DBG 12 nM = 1.00, DBG 0 nM 0.08): 0.11
p27 protein/actin ([6]; HCC827GR, DBG 6 nM, DBG 0 nM 0.06): 0.69
p27 protein ratio ([6]; HCC827GR, DBG 6 nM, relative to DBG 12 nM = 1.00, DBG 0 nM 0.08): 0.90
p27 protein ratio ([6]; HCC827GR, DBG 12 nM (set to 1.00), DBG 0 nM 0.08): 1.00
p27 protein/actin ([6]; HCC827GR, DBG 12 nM, DBG 0 nM 0.06): 0.77
level of CDKs (CDK4) ([7]; DBG 3, 6, 12 nM, 48 h): significantly decreased
CDK4 protein/actin ([7]; HCC827, DBG 3 nM, DBG 0 nM 0.59): 0.35
CDK4 protein ratio ([7]; HCC827, DBG 3 nM): 0.58
CDK4 protein/actin ([7]; HCC827, DBG 6 nM, DBG 0 nM 0.59): 0.30
CDK4 protein ratio ([7]; HCC827, DBG 6 nM): 0.50
CDK4 protein/actin ([7]; HCC827, DBG 12 nM, DBG 0 nM 0.59): 0.32
CDK4 protein ratio ([7]; HCC827, DBG 12 nM): 0.53
CDK4 protein/actin ([7]; HCC827GR, DBG 3 nM, DBG 0 nM 0.72): 0.61
CDK4 protein ratio ([7]; HCC827GR, DBG 3 nM): 0.85
CDK4 protein/actin ([7]; HCC827GR, DBG 6 nM, DBG 0 nM 0.72): 0.55
CDK4 protein ratio ([7]; HCC827GR, DBG 6 nM): 0.77
CDK4 protein/actin ([7]; HCC827GR, DBG 12 nM, DBG 0 nM 0.72): 0.30
CDK4 protein ratio ([7]; HCC827GR, DBG 12 nM): 0.42
